Laboratory results reported in patent US12268683B2, “Compounds and methods for synergistic activation of M channels” (THE REGENTS OF THE UNIVERSITY OF CALIFORNIA, priority 2018, dated 2025).

Molecular target: T1, GLRA1 (Homo sapiens, UniProt P23415)
T1 sequence (P23415 29-457): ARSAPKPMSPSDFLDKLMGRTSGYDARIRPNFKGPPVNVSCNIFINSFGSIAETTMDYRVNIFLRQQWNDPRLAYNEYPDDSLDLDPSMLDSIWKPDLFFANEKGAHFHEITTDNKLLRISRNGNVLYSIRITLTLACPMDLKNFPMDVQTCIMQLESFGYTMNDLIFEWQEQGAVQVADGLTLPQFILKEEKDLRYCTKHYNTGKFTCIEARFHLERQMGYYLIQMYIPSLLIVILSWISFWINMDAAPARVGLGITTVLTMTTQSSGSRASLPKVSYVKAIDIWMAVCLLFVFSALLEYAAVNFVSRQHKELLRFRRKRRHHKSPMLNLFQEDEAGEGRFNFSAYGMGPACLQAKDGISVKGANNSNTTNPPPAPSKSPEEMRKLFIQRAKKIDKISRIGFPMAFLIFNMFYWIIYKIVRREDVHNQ
Experiment: TEVC of glycine receptor GLRA1 expressed in oocytes
Type: cell-based
Conditions: for activation of GLRA1 by compound alone: 1 mM
Excerpt: We generated cRNA transcripts encoding human KCNQ1, KCNQ2, KCNQ3, KCNQ4, KCNQ5 or GLRA1 (NM_001146040) (GenScript, Piscataway, N.J., USA) by in vitro transcription using the T7 polymerase mMessage mMachine kit (Thermo Fisher Scientific), after vector linearization, from cDNA sub-cloned into plasmids incorporating Xenopus laevis β-globin 5′ and 3′ UTRs flanking the coding region to enhance translation and cRNA stability. We quantified cRNA by spectrophotometry. We generated mutant KCNQ2 and KCNQ3 cDNAs by site-directed mutagenesis using a QuikChange kit (Stratagene, San Diego, Calif.) and prepared the corresponding cRNAs as above. We injected defolliculated stage V and VI Xenopus laevis oocytes (Ecocyte Bioscience, Austin, Tex. and Xenoocyte, Dexter, Mich.) with KCNQ channel a subunit (5-20 ng) or GLRA1 (20 ng) cRNAs. We incubated the oocytes at 16° C. in Barth's saline solution (Ecocyte) containing penicillin and streptomycin, with daily washing, for 2-5 days prior to two-electrode voltage-clamp (TEVC) recording.
We performed TEVC at room temperature using an OC-725C amplifier (Warner Instruments, Hamden, Conn.) and pClamp10 software (Molecular Devices, Sunnyvale, Calif.) 3-5 days after cRNA injection as described in the section above. For recording, oocytes were placed in a small-volume oocyte bath (Warner) and viewed them with a dissection microscope. Chemicals were sourced from Sigma, Matrix Scientific and Santa Cruz. […] All stock solutions were diluted in bath solution on the day of experiments. KCNQ2/3 channel activation was screened for using either 30 μM or 100 μM concentrations of each of the six compounds, then dose responses were conducted as appropriate. Bath solution was (in mM): 96 NaCl, 4 KCl, 1 MgCl2, 1 CaCl2, 10 HEPES (pH 7.6). Compounds were introduced into the oocyte recording bath by gravity perfusion at a constant flow of 1 ml per minute for 3 minutes prior to recording. Pipettes were of 1-2 MΩ resistance when filled with 3 M KCl. Currents were recorded in response to voltage pulses between −120 or −80 mV and +40 mV at 20 mV intervals from a holding potential of −80 mV, to yield current-voltage relationships, current magnitude, and for quantifying activation rate. We analyzed data using Clampfit (Molecular Devices) and Graphpad Prism software (GraphPad, San Diego, Calif., USA); values are stated as mean±SEM. We plotted raw or normalized tail currents versus prepulse voltage and fitted with a single Boltzmann function: […]

Row | SMILES | inhibition of glycine-activated GLRA1 (100 μM, 1 mM glycine) [%] | inhibition of glycine-activated GLRA1 (in words) (100 μM, 1 mM glycine) | activation of GLRA1 by compound alone
1 | CS(=O)(=O)N(CC(=O)O)c1cccc(F)c1 [3FMSG] | ~40 | partially inhibited | lack of effects
2 | NCC(=O)O [glycine, reference compound] | – | – | robust activation
